Test results published in patent publication US6048875A, “Benzothiophene, benzofuran and indole compounds” (Adir et Compagnie, priority 1998, dated 2000).

Target: recombinant active human PAI-1 (Homo sapiens, UniProt P05121)
Experiment: Inhibition of the activity of PAI-1 (fibrin clot formation and breakdown monitored by turbidity in microplate wells; fibrinolytic activity)
Format: biochemical
Conditions: in vitro, pH 7.4 phosphate buffer, clot absorbance two hours after fibrin formation, 2 nM PAI-1 solution, tissue plasminogen activator, fibrinogen, human thrombin, read-out: fibrinolytic activity IC50 (concentration of product that inhibits PAI-1 activity by 50%)

Chain of recombinant active human PAI-1 (P05121 24-402): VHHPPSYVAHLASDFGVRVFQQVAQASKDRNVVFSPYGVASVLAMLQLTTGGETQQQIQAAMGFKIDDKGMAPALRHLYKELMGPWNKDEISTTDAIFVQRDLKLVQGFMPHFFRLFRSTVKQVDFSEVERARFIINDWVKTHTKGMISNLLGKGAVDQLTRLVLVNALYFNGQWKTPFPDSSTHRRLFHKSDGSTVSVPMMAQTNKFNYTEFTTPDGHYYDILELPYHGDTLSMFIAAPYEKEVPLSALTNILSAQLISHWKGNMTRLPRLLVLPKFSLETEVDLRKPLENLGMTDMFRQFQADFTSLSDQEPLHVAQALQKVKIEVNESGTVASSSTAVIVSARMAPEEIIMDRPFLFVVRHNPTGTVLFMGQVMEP

IC50 [µM]	Compound
13	COc1ccc(Oc2c(/C=C(/C(=O)O)c3ccncc3)sc3cc(OCc4ccccc4)c(OCc4ccccc4)cc23)cc1
7	O=C(O)/C(=C/c1sc2cc(OCc3ccccc3)c(OCc3ccccc3)cc2c1Oc1ccc(OCc2ccccc2)cc1)c1ccncc1
2.2	O=C(O)/C(=C/c1sc2cc(OCc3ccccc3)c(OCc3ccccc3)cc2c1Oc1ccc(-c2ccncc2)cc1)c1ccncc1 [Example 66]
5	COc1cc2sc(/C=C(/C(=O)O)c3ccncc3)c(Oc3cccnc3)c2cc1OCc1ccccc1 [Example 67]
